Source: publication PMC9414910, “Optimized ^68Ga-Labeled Urea-Based PSMA-Targeted PET Tracers for Prostate Cancer” (Pharmaceuticals, 2022)
Each block holds one molecule with its values, some of them ahead of it.

Legend:
[1] = biological target: T1, Recombinant human PSMA (rhPSMA) (Homo sapiens, UniProt Q04609); assay: NAALADase assay (enzyme-based assay on rhPSMA); format: biochemical; conditions: NAAG substrate, unlabeled ligands, read-out: Ki (PSMA inhibition constant)
T1 construct: purchased R&D systems, Wiesbaden, Germany
T1 sequence (Q04609 whole entry): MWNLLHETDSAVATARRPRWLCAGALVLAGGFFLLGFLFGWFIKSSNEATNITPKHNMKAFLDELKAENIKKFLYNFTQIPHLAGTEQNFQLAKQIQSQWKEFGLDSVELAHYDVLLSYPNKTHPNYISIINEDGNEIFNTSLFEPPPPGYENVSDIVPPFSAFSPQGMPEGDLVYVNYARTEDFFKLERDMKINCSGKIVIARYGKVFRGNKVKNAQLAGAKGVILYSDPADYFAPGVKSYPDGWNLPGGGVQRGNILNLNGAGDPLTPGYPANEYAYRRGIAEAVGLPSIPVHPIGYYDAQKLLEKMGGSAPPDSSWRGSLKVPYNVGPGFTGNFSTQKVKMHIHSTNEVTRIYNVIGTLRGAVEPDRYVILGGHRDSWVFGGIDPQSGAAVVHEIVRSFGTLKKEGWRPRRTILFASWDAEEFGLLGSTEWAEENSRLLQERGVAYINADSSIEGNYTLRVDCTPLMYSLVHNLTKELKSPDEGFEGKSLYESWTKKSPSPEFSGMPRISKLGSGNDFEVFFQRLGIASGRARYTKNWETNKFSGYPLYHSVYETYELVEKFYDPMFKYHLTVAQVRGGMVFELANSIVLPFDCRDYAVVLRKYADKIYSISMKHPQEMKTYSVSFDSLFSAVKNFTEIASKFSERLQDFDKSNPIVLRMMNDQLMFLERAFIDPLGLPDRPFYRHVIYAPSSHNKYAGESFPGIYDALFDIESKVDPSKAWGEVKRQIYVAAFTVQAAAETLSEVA
Procedure: (§1) The partition coefficient of each novel radiotracer was determined using an octanol–water system (v/v = 1:1). The in vitro stability was determined using two systems (PBS and 5% BSA). The Ki value was measured by the NAALADase assay. The 22Rv1 and PC-3 cell lines were used for the cell-binding study and establishment of the tumor-bearing model (detailed information is shown in the Supplementary Materials).
The PSMA-inhibitory activity of novel PSMA ligands was analyzed by performing an enzyme-based assay on rhPSMA [11].
PBS) and reported as log p ± SD.
The in vitro stability of radiotracers was determined by measuring radiochemical purity (RCP) in […] and 5% bovine serum albumin (BSA) at 37 °C at different time intervals (30 min, 60 min, 120 min) using radio-HPLC.
Recombinant human PSMA (rhPSMA, R&D systems, Wiesbaden, Germany) was diluted in assay buffer (50 mM HEPES, 0.1 M NaCl, pH 7.5) to 0.4 μg/mL. […]
250 μL of ortho-phthaldialdehyde solution (OPA, 15 mM, Sigma, Taufkirchen, Germany) was added to each vial and incubated for 3 min at room temperature. 200 μL aliquot of each vial was added into a 96 black well plate and read at excitation and emission wavelengths of 350 and 450 nm using a microplate reader. […] The data were analyzed by the one-site total binding regression algorithm of GraphPad

22Rv1 tumor-bearing mice = assay: Biodistribution in 22Rv1 tumor-bearing mice; conditions: for Uptake Blood, Mean / Uptake Bone, Mean / Uptake Heart, Mean / Uptake Kidney, Mean / Uptake Liver, Mean / Uptake Lung, Mean / Uptake Muscle, Mean / Uptake Spleen, Mean / Uptake Tumor (22Rv1), Mean: 0.74 MBq, n = 3
Procedure: (§2) The animal studies were approved by the institutional animal care and use committee of the Chinese PLA General Hospital. Healthy male ICR mice were injected with either a novel radiotracer (37 MBq in 150 μL) or saline (150 μL) for the radiotoxicity evaluation. […] Biodistribution and micro-PET studies were performed on 22Rv1 and PC-3 xenograft models, and 2-PMPA was used as the PSMA blocker (all details are shown in the Supplementary Materials).
BALB/c nude mice (male, 4-6 weeks) were inoculated subcutaneously with […]
100 mm3, the mice underwent biodistribution study and Micro-PET imaging.
The 22Rv1 tumor-bearing mice were injected with each novel radiotracer or […]
[…] Mice were sacrificed at different time points p.i. (10 min, 30 min, 60 min), tumors and interested organs were harvested, weighed and measured by a γ-counter, the results were expressed as the percentage of injected dose per gram (ID%/g).
Table S1. Uptake values for ex vivo tissues of [ 68Ga]Ga-PSMA-Q (0.74 MBq/mice) in 22Rv1 tumor-bearing mice (10, 30 and 60 min p.i., n = 3/time point).

[2] = Partition coefficient, octanol–water system; format: physicochemical; conditions: octanol–water (v/v = 1:1), n = 3
Procedure: as §1
PBS) and reported as log p ± SD. […]

[3] = Radiotoxicity study in male ICR mice; format: in vivo
[4] = Blood pharmacokinetics in male ICR mice; format: in vivo; conditions: 7.4 MBq i.v., two-compartment model
Procedure: Injection of novel radiotracers or [68Ga]Ga-PSMA-617 or [68Ga]Ga-PSMA-11 […]
mice (5 mice/group), and the blood sample (5 μL) of each mouse was collected by cutting down the tail end at different time points post injection. The radioactivity of blood samples were measured by a γ-counter and the pharmacokinetics data was calculated using the WinNonlin software.
Figure S3. Time-activity curves of the blood samplesafter injection of 7.4 MBq of [68Ga]Ga-PSMA-4PY (A), [68Ga]Ga-PSMA-Q (B),[68Ga]Ga-PSMA-P (C), [68Ga]Ga-PSMA-617 (D), [68Ga]Ga-PSMA-11 (E), [68Ga]Ga-PSMA-Q-1 (F), [68Ga]Ga-PSMA-Q-2 (G) and [68Ga]Ga-PSMA-Q-3 (H).
(1 picture or pasted object on this page, not shown here)

22Rv1 tumors = assay: Micro-PET imaging in 22Rv1 tumor-bearing mice; format: in vivo; conditions: 60 min p.i.
Procedure: as §2
Table S9. Tumor-to-mu scle (T/M) ratio and tumor- to-kidney (T/K) rati o of radiotracers at 60 min p.i.
The Mice bearing 22Rv1 and PC-3 (n = 3/group) xenograft tumors were […]
Co-injection with 2-PMPA (50 μ g) and each novel tracer (7.4 MBq in 150 μL) was used for blocking. Then the mice were anesthetized with 3% (v/v) isoflurane and underwent Micro-PET scans with continuous 1% (v/v) isoflurane. The images were acquired at 60 min p.i.. In comparison, […]
into another group of mice (n = 3), and Micro-PET schedule was performed as […]
Imaging was performed on a Super Nova PET/CT scanner using a 100-mm-transaxial field of view for PET and 110-mm for CT.
Three-dimensional ordered-subsets expectation maximization reconstruction

22Rv1 cells (mild PSMA+) = assay: Cell uptake / binding in 22Rv1 cells; format: cell-based, human; conditions: 60 min incubation, 37 °C
Excerpt: Cell lines were kindly provided by the stem cell bank of the Chinese Academy of Sciences. The human prostate cancer epithelial cell lines 22Rv1 (mild PSMA+) and PC-3 (with no PSMA receptor) were used to evaluate the specific cell-binding affinity of the radiotracers, and the results were expressed as percentages of injected activity, IA%/10^6.
Cell Lines and Culture Condition
Cell lines were kindly provided by the stem cell bank, the Chinese Academy of Sciences. The human prostate cancer cell lines 22Rv1 ( mild PSMA positive) and PC3 (PSMA negative) were cultured in RPMI 1640 medium or F12K medium (CORNING, America), supplemented with 10% Fetal Bovine Serum
(GIBCO, The Netherlands) and 1% penicillin-streptomycin (CORNING, America) in a humidified incubator at 37 °C under 5% CO2. Each cell line was passaged when it was at around 80-90% confluence, and harvested using trypsin-ethylenediaminetetraacetic acid (trypsin-EDTA; 0.25% trypsin, 0.02% EDTA, all from KeyGEN BioTECH).
Cells were seeded separately in 24 well plates (1 x 10^5 cells in 1 mL medium/well) and incubated overnight, the medium was changed 2 h before the experiment. For the binding experiments, cells were incubated with novel […]
min, 30 min and 60 min (6 wells/time point). After incubation, the medium was removed and the cells were washed twice with ice-cold phosphate-buffered saline (0.5 mL). Finally, the cells were lysed by NaOH (0.5 M, 0.5 mL). Coincubation of 2-(phosphonomethyl) pentane-1,5-dioic acid […]
(2-PMPA) solution (2 μg/well) and each radiotracer for 60 min was conducted as the blocking experiment. The radioactivity of cells was measured by a γ-counter. The studies were performed in triplicate and the results were reported as the percentage injected activity (IA%/10^6 cells). […]

[5] = 60 min p.i., listed as [68Ga]Ga-PSMA-Q
[6] = biodistribution, 22Rv1 tumor-bearing mice, 60 min p.i.

Ki [1]: 2.89 ± 1.07 nM
SMILES: O=C(O)CC[C@H](NC(=O)N[C@@H](CCCCNC(=O)[C@H](Cc1ccc2ccccc2c1)NC(=O)[C@H]1CC[C@H](CNC(=O)CN2CCN(CC(=O)O)CCN(CC(=O)O)CCN(CC(=O)O)CC2)CC1)C(=O)O)C(=O)O [PSMA-617, reference compound]

SMILES: O=C(O)CCC(NC(=O)NC(CCCCNC(=O)C(Cc1cc2ccc3cccc4ccc(c1)c2c34)NC(=O)C1CCC(CNC(=O)CN2CCN(CC(=O)O)CCN(CC(=O)O)CCN(CC(=O)O)CC2)CC1)C(=O)O)C(=O)O (centres unmarked) [PSMA-P]
Ki [1]: 42.4 ± 2.11 nM

SMILES: O=C([O-])CN1CCN(CC(=O)[O-])CCN(CC(=O)NCC2CCC(C(=O)NC(Cc3cnc4ccccc4c3)C(=O)NCCCCC(NC(=O)NC(CCC(=O)O)C(=O)O)C(=O)O)CC2)CCN(CC(=O)O)CC1.[68Ga+3] (centres unmarked) [[^68Ga]Ga-PSMA-Q]
Uptake Blood, Mean (22Rv1 tumor-bearing mice; 10 min p.i.): 2.62 ID%/g
Uptake Bone, Mean (22Rv1 tumor-bearing mice; 10 min p.i.): 0.72 ID%/g
Uptake Heart, Mean (22Rv1 tumor-bearing mice; 10 min p.i.): 2.07 ID%/g
Uptake Kidney, Mean (22Rv1 tumor-bearing mice; 10 min p.i.): 8.79 ID%/g
Uptake Liver, Mean (22Rv1 tumor-bearing mice; 10 min p.i.): 2.13 ID%/g
Uptake Lung, Mean (22Rv1 tumor-bearing mice; 10 min p.i.): 1.10 ID%/g
Uptake Muscle, Mean (22Rv1 tumor-bearing mice; 10 min p.i.): 0.70 ID%/g
Uptake Spleen, Mean (22Rv1 tumor-bearing mice; 10 min p.i.): 2.16 ID%/g
Uptake Tumor (22Rv1), Mean (22Rv1 tumor-bearing mice; 10 min p.i.): 1.86 ID%/g
Uptake Blood, Mean (22Rv1 tumor-bearing mice; 30 min p.i.): 1.04 ID%/g
Uptake Bone, Mean (22Rv1 tumor-bearing mice; 30 min p.i.): 0.22 ID%/g
Uptake Heart, Mean (22Rv1 tumor-bearing mice; 30 min p.i.): 0.98 ID%/g
Uptake Kidney, Mean (22Rv1 tumor-bearing mice; 30 min p.i.): 5.91 ID%/g
Uptake Liver, Mean (22Rv1 tumor-bearing mice; 30 min p.i.): 1.14 ID%/g
Uptake Lung, Mean (22Rv1 tumor-bearing mice; 30 min p.i.): 0.76 ID%/g
Uptake Muscle, Mean (22Rv1 tumor-bearing mice; 30 min p.i.): 0.21 ID%/g
Uptake Spleen, Mean (22Rv1 tumor-bearing mice; 30 min p.i.): 1.73 ID%/g
Uptake Tumor (22Rv1), Mean (22Rv1 tumor-bearing mice; 30 min p.i.): 2.98 ID%/g
Uptake Blood, Mean (22Rv1 tumor-bearing mice; 60 min p.i.): 0.31 ID%/g
Uptake Bone, Mean (22Rv1 tumor-bearing mice; 60 min p.i.): 0.21 ID%/g
Uptake Heart, Mean (22Rv1 tumor-bearing mice; 60 min p.i.): 0.08 ID%/g
Uptake Liver, Mean (22Rv1 tumor-bearing mice; 60 min p.i.): 0.70 ID%/g
Uptake Lung, Mean (22Rv1 tumor-bearing mice; 60 min p.i.): 0.33 ID%/g
Uptake Muscle, Mean (22Rv1 tumor-bearing mice; 60 min p.i.): 0.13 ID%/g
Uptake Spleen, Mean (22Rv1 tumor-bearing mice; 60 min p.i.): 0.35 ID%/g
Uptake Tumor (22Rv1), Mean (22Rv1 tumor-bearing mice; 60 min p.i.): 4.06 ± 0.36 ID%/g
Uptake Kidney, Mean (22Rv1 tumor-bearing mice; [5]): 2.46 ID%/g
Uptake Tumor (22Rv1), Mean (22Rv1 tumor-bearing mice; [5]): 4.06 ID%/g
Tumor-to-kidney (T/K) ratio (22Rv1 tumor-bearing mice; [6]): 1.60 ± 0.08
Tumor-to-muscle (T/M) ratio (22Rv1 tumor-bearing mice; [6]): 31.44 ± 2.09
Clearance profile in the kidneys (22Rv1 tumor-bearing mice; within 60 min p.i.): washed out rapidly from the kidneys
Log p pH = 7.4 [2]: −3.24 ± 0.21
Survival ([3]; 37 MBq in 150 μL, 14 days): did not die within 14 days
Routine blood tests and H&E staining of the main organs vs control ([3]; 37 MBq in 150 μL, vs saline): no significant differences
Acute radiotoxicity-related adverse events ([3]; toxicity experiments in mice): no acute radiotoxicity-related adverse events were observed
Elimination half-life [4]: 17.86 ± 1.23 min
SUVmax of tumor (22Rv1 tumors; 22Rv1 tumor, 7.4 MBq): 0.97 ± 0.24
Tumor-to-muscle ratio (micro-PET) (22Rv1 tumors; 22Rv1 tumor-bearing mice): 59.33 ± 5.72
Uptake in 22Rv1 cells (22Rv1 cells (mild PSMA+)): 3.75 ± 0.35 IA%/10^6
